Measurements taken from ChEMBL document CHEMBL2028040, “Malaria Box”.
pEC50, pIC50: −log10 of the molar value.

Experiments:
Trypanosoma cruzi = assay: MMV: Inhibition of Trypanosoma cruzi (Tulahuen C4 LacZ) (Chagas in vitro).; type: functional, organism-based
[1] = system: Trypanosoma brucei rhodesiense; assay: MMV: Inhibition of Trypanosoma brucei rhodesiense (STIB 900) (HAT in vitro).; type: functional, organism-based
[2] = system: Trypanosoma brucei brucei; assay: MMV: Inhibition of Trypanosoma brucei brucei (Squib 427) (HAT in vitro).; type: functional, organism-based
[3] = MMV: Cytotoxicity against human fibroblasts (MRC-5) cells.; conditions: MRC-5 cells (human fibroblasts)
Leishmania infantum = assay: MMV: Inhibition of Leishmania infantum (MHOM/MA/BE/67) in vitro.; type: functional, organism-based
Plasmodium falciparum [4] = assay: MMV: Inhibition of Plasmodium falciparum 3D7 (EC50).; type: functional, organism-based
Plasmodium falciparum [5] = assay: MMV: Inhibition of Plasmodium falciparum 3D7 at 5uM compound concentration.; type: functional

Work on CCOc1cc(CNC(C)C(O)c2ccccc2)cc(Cl)c1OCC (stereo not given) yielded a pIC50 (Trypanosoma cruzi) of 4.60, a pIC50 [1] of 5.06 and a pIC50 [2] of 4.94. The pIC50 [3] was less than 4.49, the pIC50 (Leishmania infantum) was 4.78 and the pEC50 (Plasmodium falciparum [4]) was 5.91.

Work on Nc1nc(Nc2cccc(F)c2)nc2ccccc12 yielded a pIC50 (Trypanosoma cruzi) of 4.70, a pIC50 [1] of 4.77 and a pIC50 [2] of 4.56. For the same compound, the pIC50 [3] was less than 4.49, the pIC50 (Leishmania infantum) was 4.80 and the pEC50 (Plasmodium falciparum [4]) was 6.00.

For CCOc1c(Cl)cc(CNCC(O)c2ccccc2)cc1OC (stereo not given), the pIC50 (Trypanosoma cruzi) was less than 4.49, the pIC50 [1] was 4.79 and the pIC50 [2] was 4.93. It also gave a pIC50 [3] of less than 4.49, a pIC50 (Leishmania infantum) of less than 4.49 and a pEC50 (Plasmodium falciparum [4]) of 5.98.

For COc1ccc2nc(C)cc(Nc3ccccc3O)c2c1, the pIC50 (Trypanosoma cruzi) was less than 4.49, the pIC50 [1] was less than 4.49 and the pIC50 [2] was less than 4.49. The pIC50 [3] was less than 4.49, the pIC50 (Leishmania infantum) was less than 4.49 and the pEC50 (Plasmodium falciparum [4]) was 6.16.

Compound COc1ccc(-c2nc(N3CCN(C(=O)C4CCCCC4)CC3)c3c4c(sc3n2)CCCC4)cc1 has a pIC50 (Trypanosoma cruzi) of 5.13, a pIC50 [1] of 5.39 and a pIC50 [2] of 5.39. The pIC50 [3] was less than 4.49, the pIC50 (Leishmania infantum) was 5.36 and the pEC50 (Plasmodium falciparum [4]) was 5.97.

Cc1cc(C)cc(Nc2cc(C)nc3nc(C(F)(F)F)nn23)c1 showed a pIC50 (Trypanosoma cruzi) of less than 4.49, a pIC50 [1] of less than 4.49 and a pIC50 [2] of less than 4.49. The pIC50 [3] was less than 4.49, the pIC50 (Leishmania infantum) was less than 4.49 and the pEC50 (Plasmodium falciparum [4]) was 7.07.

With CCn1nc(-c2ccc(C(=O)OC)cc2)nc2c(=O)n(C)c(=O)nc1-2 the pIC50 (Trypanosoma cruzi) was 6.09, the pIC50 [1] was 6.10 and the pIC50 [2] was 6.55. For the same compound, the pIC50 [3] was 5.45, the pIC50 (Leishmania infantum) was 5.39 and the pEC50 (Plasmodium falciparum [4]) was 6.16.

CCOc1ccccc1CN1CCc2nc3cc(C(C)(C)C)nn3c(O)c2C1 gave a pIC50 (Trypanosoma cruzi) of less than 4.49, a pIC50 [1] of less than 4.49 and a pIC50 [2] of 4.54. It also gave a pIC50 [3] of less than 4.49, a pIC50 (Leishmania infantum) of less than 4.49 and a pEC50 (Plasmodium falciparum [4]) of 6.00.

For O=C(NC1CCN(Cc2ccccc2)CC1)c1cc2nc(-c3ccc(Cl)s3)cc(C(F)(F)F)n2n1, the pIC50 (Trypanosoma cruzi) was less than 4.49, the pIC50 [1] was less than 4.49 and the pIC50 [2] was less than 4.49. The pIC50 [3] was less than 4.49, the pIC50 (Leishmania infantum) was 4.80 and the pEC50 (Plasmodium falciparum [4]) was 6.02.

CCOC(=O)c1cnc2ccc(CC)cc2c1O gave a pIC50 (Trypanosoma cruzi) of less than 4.49, a pIC50 [1] of less than 4.49 and a pIC50 [2] of less than 4.49. For the same compound, the pIC50 [3] was less than 4.49, the pIC50 (Leishmania infantum) was less than 4.49 and the pEC50 (Plasmodium falciparum [4]) was 6.45.

In the case of CCN(CC)CCNc1ccnc2cc(Cl)ccc12, the pIC50 (Trypanosoma cruzi) was 5.20, the pIC50 [1] was 4.99 and the pIC50 [2] was 4.99. For the same compound, the pIC50 [3] was less than 4.49, the pIC50 (Leishmania infantum) was 4.76 and the pEC50 (Plasmodium falciparum [4]) was 7.24.

Compound Cc1cc(Nc2ccc3ccccc3c2)n2ncnc2n1 has a pIC50 (Trypanosoma cruzi) of less than 4.49, a pIC50 [1] of less than 4.49 and a pIC50 [2] of less than 4.49. For the same compound, the pIC50 [3] was less than 4.49, the pIC50 (Leishmania infantum) was less than 4.49 and the pEC50 (Plasmodium falciparum [4]) was 6.62.

With COc1cccc(Nc2nc(NCCO)c3ccccc3n2)c1 the pIC50 (Trypanosoma cruzi) was 4.88, the pIC50 [1] was 5.17 and the pIC50 [2] was 4.85. The pIC50 [3] was 4.58, the pIC50 (Leishmania infantum) was 5.36 and the pEC50 (Plasmodium falciparum [4]) was 6.07.

In the case of O=C(O)C1Cc2c([nH]c3ccccc23)C(c2ccc(Cl)cc2Cl)N1 (stereo not given), the pIC50 (Trypanosoma cruzi) was less than 4.49, the pIC50 [1] was less than 4.49 and the pIC50 [2] was less than 4.49. The pIC50 [3] was less than 4.49, the pIC50 (Leishmania infantum) was less than 4.49 and the pEC50 (Plasmodium falciparum [4]) was 6.46.

COCCNCC(O)Cn1c2ccc(Cl)cc2c2cc(Cl)ccc21 (stereo not given) showed a pIC50 (Trypanosoma cruzi) of 5.41, a pIC50 [1] of 6.45 and a pIC50 [2] of 6.15. The pIC50 [3] was 5.32, the pIC50 (Leishmania infantum) was 5.53 and the pEC50 (Plasmodium falciparum [4]) was 6.00.

O=c1nc(C=Cc2ccc(Br)cc2)oc2ccccc12 gave a pIC50 (Trypanosoma cruzi) of 5.38, a pIC50 [1] of 4.79 and a pIC50 [2] of 4.80. The pIC50 [3] was 5.40, the pIC50 (Leishmania infantum) was 5.39 and the inhibition at 5 µM (Plasmodium falciparum [5]) was 94%.

For COCCNC(=O)c1ccc(OC2CCN(Cc3ccc(F)c(F)c3)CC2)c(Cl)c1, the pIC50 (Trypanosoma cruzi) was less than 4.49, the pIC50 [1] was 4.79 and the pIC50 [2] was less than 4.49. It also gave a pIC50 [3] of less than 4.49, a pIC50 (Leishmania infantum) of less than 4.49 and an inhibition at 5 µM (Plasmodium falciparum [5]) of 91%.

In the case of CCN(CC)CCNc1ccnc2cc3ccccc3cc12, the pIC50 (Trypanosoma cruzi) was 4.83, the pIC50 [1] was 5.40 and the pIC50 [2] was 5.39. It also gave a pIC50 [3] of 4.91, a pIC50 (Leishmania infantum) of 5.36 and a pEC50 (Plasmodium falciparum [4]) of 6.41.

COc1ccc(Nc2cc(C)nc(NCc3ccccc3)n2)cc1 showed a pIC50 (Trypanosoma cruzi) of 5.98, a pIC50 [1] of 5.41 and a pIC50 [2] of 5.53. For the same compound, the pIC50 [3] was 4.87, the pIC50 (Leishmania infantum) was 5.36 and the pEC50 (Plasmodium falciparum [4]) was 6.33.

COc1ccc2c(c1)OC(O)(C(F)(F)C(F)(F)F)CC2=O (stereo not given) showed a pIC50 (Trypanosoma cruzi) of 4.79, a pIC50 [1] of 4.77 and a pIC50 [2] of less than 4.49. The pIC50 [3] was 4.59, the pIC50 (Leishmania infantum) was 4.60 and the pEC50 (Plasmodium falciparum [4]) was 6.55.

For CCN(CC)CCNc1ncnc2c1[nH]c1ccc(Br)cc12, the pIC50 (Trypanosoma cruzi) was 4.77, the pIC50 [1] was 4.80 and the pIC50 [2] was 4.79. It also gave a pIC50 [3] of less than 4.49, a pIC50 (Leishmania infantum) of 4.80 and a pEC50 (Plasmodium falciparum [4]) of 6.15.

Work on Cc1cc(N(C)C)nc(Nc2ccc(NC(=O)Nc3ccccc3)cc2)n1 yielded a pIC50 (Trypanosoma cruzi) of 5.99, a pIC50 [1] of 5.90 and a pIC50 [2] of 5.26. For the same compound, the pIC50 [3] was 4.62, the pIC50 (Leishmania infantum) was 5.36 and the pEC50 (Plasmodium falciparum [4]) was 5.94.

With CN(C)c1ccc(-c2nc3cc(N)ccc3[nH]2)cc1 the pIC50 (Trypanosoma cruzi) was 4.76, the pIC50 [1] was 4.74 and the pIC50 [2] was 4.71. The pIC50 [3] was less than 4.49, the pIC50 (Leishmania infantum) was less than 4.49 and the inhibition at 5 µM (Plasmodium falciparum [5]) was 64%.

For CCCC(c1nnnn1C1CCCCC1)N1CCN(C(=O)c2ccco2)CC1 (stereo not given), the pIC50 (Trypanosoma cruzi) was less than 4.49, the pIC50 [1] was less than 4.49 and the pIC50 [2] was less than 4.49. It also gave a pIC50 [3] of less than 4.49, a pIC50 (Leishmania infantum) of less than 4.49 and an inhibition at 5 µM (Plasmodium falciparum [5]) of 82%.

With CC(C)(C)c1ccc(C(=O)Nc2c3c(nn2-c2cccc(Cl)c2)CSC3)cc1 the pIC50 (Trypanosoma cruzi) was less than 4.49, the pIC50 [1] was less than 4.49 and the pIC50 [2] was 4.79. The pIC50 [3] was less than 4.49, the pIC50 (Leishmania infantum) was less than 4.49 and the inhibition at 5 µM (Plasmodium falciparum [5]) was 93%.

In the case of COc1ccc(C2N(C)c3ccccc3N2C)cc1, the pIC50 (Trypanosoma cruzi) was less than 4.49, the pIC50 [1] was less than 4.49 and the pIC50 [2] was less than 4.49. It also gave a pIC50 [3] of less than 4.49, a pIC50 (Leishmania infantum) of less than 4.49 and an inhibition at 5 µM (Plasmodium falciparum [5]) of 62%.

Work on Oc1ccc(Br)cc1CN1CCN(Cc2cccc(F)c2)CC1 yielded a pIC50 (Trypanosoma cruzi) of 4.90, a pIC50 [1] of 4.78 and a pIC50 [2] of less than 4.49. For the same compound, the pIC50 [3] was less than 4.49, the pIC50 (Leishmania infantum) was 4.60 and the pEC50 (Plasmodium falciparum [4]) was 5.99.

Work on Clc1ccc2[nH]c3c(NCCCN4CCOCC4)ncnc3c2c1 yielded a pIC50 (Trypanosoma cruzi) of 4.67, a pIC50 [1] of 5.40 and a pIC50 [2] of less than 4.49. For the same compound, the pIC50 [3] was less than 4.49, the pIC50 (Leishmania infantum) was less than 4.49 and the pEC50 (Plasmodium falciparum [4]) was 6.15.

Compound COc1ccc(Nc2nc(NCc3ccccc3)c3ccccc3n2)cc1 has a pIC50 (Trypanosoma cruzi) of 5.45, a pIC50 [1] of 5.39 and a pIC50 [2] of 5.42. It also gave a pIC50 [3] of 4.91, a pIC50 (Leishmania infantum) of 6.00 and a pEC50 (Plasmodium falciparum [4]) of 6.23.

Work on Cc1cc(Nc2ccc(Cl)cc2)n2nc(C(F)(F)F)nc2n1 yielded a pIC50 (Trypanosoma cruzi) of less than 4.49, a pIC50 [1] of less than 4.49 and a pIC50 [2] of less than 4.49. The pIC50 [3] was less than 4.49, the pIC50 (Leishmania infantum) was less than 4.49 and the pEC50 (Plasmodium falciparum [4]) was 6.67.

COc1cc2c(cc1OC)C1=NNC(=O)C1=NC(C)(C)C2 showed a pIC50 (Trypanosoma cruzi) of 5.45, a pIC50 [1] of 5.18 and a pIC50 [2] of 4.89. For the same compound, the pIC50 [3] was less than 4.49, the pIC50 (Leishmania infantum) was 5.39 and the pEC50 (Plasmodium falciparum [4]) was 5.98.

CCCc1c(C)nc2ccccc2c1O showed a pIC50 (Trypanosoma cruzi) of less than 4.49, a pIC50 [1] of less than 4.49 and a pIC50 [2] of less than 4.49. For the same compound, the pIC50 [3] was less than 4.49, the pIC50 (Leishmania infantum) was less than 4.49 and the inhibition at 5 µM (Plasmodium falciparum [5]) was 88%.

With Cc1cc(N2CCN(C3CCCC3)CC2)n2c(nc3ccccc32)c1C#N the pIC50 (Trypanosoma cruzi) was less than 4.49, the pIC50 [1] was less than 4.49 and the pIC50 [2] was less than 4.49. For the same compound, the pIC50 [3] was less than 4.49, the pIC50 (Leishmania infantum) was less than 4.49 and the pEC50 (Plasmodium falciparum [4]) was 6.17.

With Cc1ccc(Nc2nc(NCCO)c3ccccc3n2)cc1C the pIC50 (Trypanosoma cruzi) was 5.52, the pIC50 [1] was 5.42 and the pIC50 [2] was 5.09. It also gave a pIC50 [3] of 4.94, a pIC50 (Leishmania infantum) of 5.60 and a pEC50 (Plasmodium falciparum [4]) of 6.37.

CN1CCN(c2nc(Nc3ccc(O)cc3)nc3ccccc23)CC1 gave a pIC50 (Trypanosoma cruzi) of 4.95, a pIC50 [1] of 5.48 and a pIC50 [2] of 5.33. For the same compound, the pIC50 [3] was less than 4.49, the pIC50 (Leishmania infantum) was 4.87 and the pEC50 (Plasmodium falciparum [4]) was 5.84.
